Data: US20260116908A1, “TYLOSIN DERIVATIVE AND PREPARATION METHOD AND APPLICATION THEREOF” (Institute of Feed Research, Chinese Academy of Agricultural …, priority 2023, published 2026)
Values after ≈ are worked out from the molar mass of the structure shown.

Legend:
Format in all cases: cell-based
[1] = tested on: Streptococcus pneumoniae ATCC 49169; test: MIC by broth microdilution, Streptococcus pneumoniae; conditions: for MIC: Streptococcus pneumoniae, ATCC49169, final compound (after hydrolysis), 96-well two-fold dilution, 37° C., 24 hours; for antibacterial effect on Streptococcus pneumoniae before versus after hydrolysis: before vs after hydrolysis
Procedure: (§1) The antibacterial activity of the tylosin derivative Ia and the antibacterial activity of the tylosin derivative Ib of the present invention were determined by using the broth microdilution method with tylosin as a positive control. A broth culture medium was added into a 96-well plate, a prepared compound solution was diluted in a trace two-fold decreasing concentration, and then was inoculated with an appropriate amount of bacterial solution. After incubation for 24 hours, the minimum inhibitory concentration of the compound was observed. The culture medium used in the experiment was CAMHB broth and CAMHB+5% defibrillated sheep blood broth. The preserved bacteria strain was inoculated into a serum plate medium and cultured at 37° C. for 16-18 hours. An appropriate amount of bacteria after the completion of subculture and saline were placed into a turbidimetric tube and calibrated to the McFarland standard with a McFarland turbidimeter. The bacterial suspension was diluted 10 times with saline to prepare test bacterial solutions of certain concentrations (5×10^5 to 5×10^6 cfu/mL) for later use. Tylosin and the compounds obtained in the examples were dissolved in methanol to the desired concentration of each compound (1.0 mg/mL), stored in sterilized brown vials, stoppered, and sealed for later use. The working concentration range against Gram-negative bacteria was 0.25 μg/mL to 128 μg/mL; and the working concentration range against Gram-positive bacteria was […] to 50 μg/mL. The 96-well plate micro double dilution method was used. […] Finally, the prepared bacterial solution (of a concentration of 5×10^5 to 5×10^6 cfu/mL) was added into the first well to the eleventh well, and the twelfth well was not added with the bacterial solution to serve as a blank control. The 96-well plate was placed in a 37° C. incubator, cultured in a static state for 24 hours to observe the bacterial growth in each well. The solution in the well that inhibited bacterial growth was transparent, and the solution in the well that could not inhibit bacterial growth was turbid. The concentration corresponding to the well with a transparent solution was selected to be the minimum inhibitory concentration (MIC) of the sample.

[2] = tested on: Streptococcus agalactiae CVCC3940; test: MIC by broth microdilution, Streptococcus agalactiae
Procedure: (§2) The antibacterial activity of the tylosin derivative Ia and the antibacterial activity of the tylosin derivative Ib of the present invention were determined by using the broth microdilution method with tylosin as a positive control. A broth culture medium was added into a 96-well plate, a prepared compound solution was diluted in a trace two-fold decreasing concentration, and then was inoculated with an appropriate amount of bacterial solution. After incubation for 24 hours, the minimum inhibitory concentration of the compound was observed. The culture medium used in the experiment was CAMHB broth and CAMHB+5% defibrillated sheep blood broth. The preserved bacteria strain was inoculated into a serum plate medium and cultured at 37° C. for 16-18 hours. An appropriate amount of bacteria after the completion of subculture and saline were placed into a turbidimetric tube and calibrated to the McFarland standard with a McFarland turbidimeter. The bacterial suspension was diluted 10 times with saline to prepare test bacterial solutions of certain concentrations (5×10^5 to 5×10^6 cfu/mL) for later use. Tylosin and the compounds obtained in the examples were dissolved in methanol to the desired concentration of each compound (1.0 mg/mL), stored in sterilized brown vials, stoppered, and sealed for later use. […]

[3] = tested on: Staphylococcus aureus ATCC 29737; test: MIC by broth microdilution, Staphylococcus aureus
Procedure: as §2

[4] = tested on: Escherichia coli ATCC 8099; test: MIC by broth microdilution, Escherichia coli; conditions: for MIC: Escherichia coli, ATCC8099, final compound (after hydrolysis), 96-well two-fold dilution, 37° C., 24 hours; for antibacterial effect on Escherichia coli before versus after hydrolysis: before vs after hydrolysis
Procedure: as §1

Structure (SMILES): CC[C@H]1OC(=O)C[C@@H](O)[C@H](C)[C@@H](O[C@@H]2O[C@H](C)[C@@H](O)[C@H](N(C)C)[C@H]2O)[C@@H](CCNCCCO)C[C@@H](C)C(=O)/C=C/C(C)=C/[C@@H]1CO[C@@H]1O[C@H](C)[C@@H](O)[C@@H](OC)[C@H]1OC [Ia, 20-(3-hydroxypropylamino)desmycosin]
- MIC [1]: 0.391 µg/mL (≈ 0.47 µM)
- antibacterial effect on Streptococcus pneumoniae before versus after hydrolysis [1]: comparable
- in vitro antibacterial activity against Streptococcus pneumoniae compared with tylosin [1]: higher in vitro antibacterial activity
- MIC ([2]; Streptococcus agalactiae, CVCC3940, after hydrolysis, 96-well two-fold dilution, 37° C., 24 hours): 1.56 µg/mL (≈ 1.88 µM)
- antibacterial activity against Streptococcus agalactiae before versus after hydrolysis ([2]; before vs after hydrolysis): stronger before the hydrolysis
- MIC ([3]; Staphylococcus aureus, ATCC29737, after hydrolysis, 96-well two-fold dilution, 37° C., 24 hours): 0.781 µg/mL (≈ 0.94 µM)
- antibacterial activity against Staphylococcus aureus before versus after hydrolysis ([3]; before vs after hydrolysis): stronger after the hydrolysis
- MIC [4]: 128 µg/mL (≈ 154 µM)
- antibacterial effect on Escherichia coli before versus after hydrolysis [4]: comparable

Structure (SMILES): CC[C@H]1OC(=O)C[C@@H](O)[C@H](C)[C@@H](O[C@@H]2O[C@H](C)[C@@H](O[C@H]3C[C@@](C)(O)[C@@H](O)[C@H](C)O3)[C@H](N(C)C)[C@H]2O)[C@@H](CC=O)C[C@@H](C)C(=O)/C=C/C(C)=C/[C@@H]1CO[C@@H]1O[C@H](C)[C@@H](O)[C@@H](OC)[C@H]1OC [Tylosin]
- MIC [1]: 0.781 µg/mL (≈ 0.853 µM)
- MIC [4]: 128 µg/mL (≈ 140 µM)

Structure (SMILES): CC[C@H]1OC(=O)C[C@@H](O)[C@H](C)[C@@H](O[C@@H]2O[C@H](C)[C@@H](O)[C@H](N(C)C)[C@H]2O)[C@@H](CCN2CCC[C@@H]2CO)C[C@@H](C)C(=O)/C=C/C(C)=C/[C@@H]1CO[C@@H]1O[C@H](C)[C@@H](O)[C@@H](OC)[C@H]1OC [Ib, 20-((R)-2-hydroxymethyltetrahydropyrrolyl)desmycosin]
- MIC [1]: 0.098 µg/mL (≈ 0.114 µM)
- antibacterial effect on Streptococcus pneumoniae before versus after hydrolysis [1]: doubled after the hydrolysis
- in vitro antibacterial activity against Streptococcus pneumoniae compared with tylosin [1]: higher in vitro antibacterial activity
- MIC [4]: 64 µg/mL (≈ 74.7 µM)
- antibacterial effect on Escherichia coli before versus after hydrolysis [4]: comparable
- in vitro antibacterial activity against Escherichia coli compared with tylosin ([4]; compared with tylosin): higher in vitro antibacterial activity
